Some test systems named below: U-251; NCI/ADR-RES; HCT-116; Malme-3M; SK-OV-3; RPMI-8226; HCC 2998; UO-31; IGROV-1; CAKI-1; TK-10; OVCAR-3; T47D; PC-3; SR; SK-MEL-5; OVCAR-5; BT-549; HT-29.
What all share (assay): NCI anticancer screen, dose series, 48 h

Data on ten compounds can be found in ChEMBL document CHEMBL1201862, “PubChem BioAssay data set” (2004).

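These data come from cells grown in 96-well plates and exposed to compound for 48 hours at five concentrations. Here, GI50 denotes the concentration required for 50% inhibition of growth.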 Activity calls are given as the source filed them. Rule as the data show it: active = GI50 up to about 1.1 µM and inactive = higher.

Consider `O=C1/C(=C\c2ccc(Cl)cc2Cl)Sc2scc(-c3cccc([N+](=O)[O-])c3)[n+]21`, for which the GI50 is 13.9 µM (inactive) in the experiment on U-251; 8.75 µM (inactive) in the experiment with NCI/ADR-RES; 5.2 µM (inactive) in the experiment on HCT-116; 8.11 µM (inactive) in the experiment on Malme-3M; 41 µM (inactive) in the experiment on SK-OV-3; 4.48 µM (inactive) with RPMI-8226. Moreover, the GI50 with HCC 2998 is 7.64 µM (inactive); in the experiment on UO-31, 3.47 µM (inactive); in the experiment with IGROV-1, 6.31 µM (inactive); in the experiment with CAKI-1, 3.03 µM (inactive); in the experiment on TK-10, 4.07 µM (inactive); in the experiment with OVCAR-3, 8.13 µM (inactive). The GI50 in the experiment on T47D is 12.2 µM (inactive); in the experiment with PC-3 it was 15.6 µM (inactive); with SR, 2.58 µM (inactive); in the experiment with SK-MEL-5, 2.09 µM (inactive); with OVCAR-5, 15.5 µM (inactive); in the experiment with BT-549, 4.45 µM (inactive). In the experiment on HT-29, the GI50 is 3.28 µM (inactive).
As to `Cc1ccc(/C=N/Nc2cc(C)c3cccc(C)c3n2)s1`, the GI50 in the experiment on U-251 was 10.6 µM (inactive); in the experiment on NCI/ADR-RES, 2.99 µM (inactive); in the experiment on HCT-116, 2.82 µM (inactive); with Malme-3M it was 15.1 µM (inactive); in the experiment with SK-OV-3 it was 16.4 µM (inactive); with RPMI-8226, 6.67 µM (inactive). In addition, the GI50 with HCC 2998 is 6.38 µM (inactive); in the experiment with UO-31 it was 5.79 µM (inactive); with IGROV-1, 2.61 µM (inactive); in the experiment with CAKI-1, 15.8 µM (inactive); in the experiment on TK-10 it was 14.7 µM (inactive); in the experiment with OVCAR-3, 8.02 µM (inactive). Besides, the GI50 in the experiment on T47D was 4.15 µM (inactive); with PC-3, 8.2 µM (inactive); in the experiment with SR it was 2.71 µM (inactive); in the experiment on SK-MEL-5 it was 9.86 µM (inactive); in the experiment with OVCAR-5 it was 9.91 µM (inactive); in the experiment with BT-549 it was 5.45 µM (inactive). In the experiment on HT-29, the GI50 is 2.86 µM (inactive).
On to `[O-][S+](Cc1ccccc1)c1ccccc1Cn1cccc1` (centres undefined), for which the GI50 in the experiment on U-251, with NCI/ADR-RES, with HCT-116, in the experiment with Malme-3M, in the experiment with SK-OV-3 and in the experiment with RPMI-8226 was > 100 µM (inactive) throughout. Moreover, the GI50 in the experiment with HCC 2998, with UO-31, in the experiment with IGROV-1, with CAKI-1, in the experiment with TK-10 and in the experiment on OVCAR-3 was > 100 µM (inactive) throughout. Moreover, the GI50 with T47D was > 100 µM (inactive); with PC-3, > 100 µM (inactive); in the experiment with SR it was 23 µM (inactive); in the experiment with SK-MEL-5 it was > 100 µM (inactive); in the experiment on OVCAR-5, > 100 µM (inactive); in the experiment with BT-549, 61.1 µM (inactive). For the same compound, the GI50 in the experiment on HT-29 is > 100 µM (inactive).
`COc1ccc(CCNC(=O)c2ccccc2C2c3ccc(OCc4ccccc4)cc3Oc3cc(OCc4ccccc4)ccc32)cc1OC`: the GI50 with U-251, in the experiment with NCI/ADR-RES, with HCT-116, in the experiment with Malme-3M, in the experiment on SK-OV-3 and with RPMI-8226 was > 100 µM (inactive) each time. Besides, the GI50 in the experiment with HCC 2998, in the experiment on UO-31, in the experiment on IGROV-1, with CAKI-1, in the experiment with TK-10 and in the experiment on OVCAR-3 was > 100 µM (inactive) throughout. Besides, the GI50 in the experiment on T47D, with PC-3, with SR, with SK-MEL-5, in the experiment with OVCAR-5 and in the experiment on BT-549 was > 100 µM (inactive) in each case. In the experiment on HT-29, the GI50 is > 100 µM (inactive).
With `NCCCCC(N)C(=O)NCCNc1ccc(NCCNC(=O)C(N)CCCCN)c2c1C(=O)c1ccccc1C2=O` (centres undefined), the GI50 in the experiment on U-251 is 35 µM (inactive); in the experiment on NCI/ADR-RES, 28.2 µM (inactive); in the experiment with HCT-116, 17.3 µM (inactive); with Malme-3M, > 100 µM (inactive); in the experiment on SK-OV-3 it was 34.4 µM (inactive); with RPMI-8226 it was 31.8 µM (inactive). For the same compound, the GI50 was 16.4 µM (inactive) in the experiment with HCC 2998; 32.3 µM (inactive) in the experiment with UO-31; > 100 µM (inactive) with IGROV-1; > 84.7 µM (inactive) in the experiment on CAKI-1; > 94.4 µM (inactive) with TK-10; > 100 µM (inactive) in the experiment with OVCAR-3. Besides, the GI50 in the experiment with T47D was > 100 µM (inactive); in the experiment on PC-3 it was 81.1 µM (inactive); with SR, 4.91 µM (inactive); in the experiment with SK-MEL-5, > 100 µM (inactive); in the experiment with OVCAR-5, > 74.3 µM (inactive); with BT-549, 6.78 µM (inactive). In the experiment on HT-29, the GI50 was 50.7 µM (inactive).
For the compound `CC(=O)O[C@H]1C(=O)[C@@]2(C)[C@H]([C@H](OC(=O)c3ccccc3)[C@]3(O)C[C@H](OC(=O)[C@H](O)[C@@H](NC(=O)c4ccccc4)c4ccccc4C)C(C)=C1C3(C)C)[C@]1(OC(C)=O)CO[C@@H]1C[C@@H]2O`, the GI50 was 0.361 µM (active) with U-251; > 25 µM (inactive) in the experiment on NCI/ADR-RES; 0.177 µM (active) in the experiment with HCT-116; 1.66 µM (inactive) with Malme-3M; 1.02 µM (active) with SK-OV-3; 0.0904 µM (active) in the experiment with RPMI-8226. In addition, the GI50 in the experiment with HCC 2998 is 0.782 µM (active); in the experiment on UO-31, 6.46 µM (inactive); with IGROV-1, 0.449 µM (active); with CAKI-1 it was 5.35 µM (inactive); in the experiment on TK-10, 2.71 µM (inactive); in the experiment with OVCAR-3 it was 0.324 µM (active). Further, the GI50 in the experiment with T47D is > 25 µM (inactive); in the experiment with PC-3 it was 0.258 µM (active); in the experiment with SR, 0.136 µM (active); in the experiment with SK-MEL-5 it was 0.406 µM (active); in the experiment with OVCAR-5, 0.843 µM (active); in the experiment with BT-549, 0.687 µM (active). Besides, the GI50 with HT-29 is 0.13 µM (active).
For `OC1c2ccccc2CCC1CN1CCN(CCOC(c2ccc(F)cc2)c2ccc(F)cc2)CC1` (centres undefined), the GI50 with U-251 was 13.8 µM (inactive); with NCI/ADR-RES, 11.2 µM (inactive); with HCT-116 it was 8.22 µM (inactive); in the experiment on Malme-3M, 15.2 µM (inactive); in the experiment on SK-OV-3, 94.8 µM (inactive); in the experiment on RPMI-8226 it was 5.77 µM (inactive). Moreover, the GI50 with HCC 2998 was 4.79 µM (inactive); with IGROV-1 it was 17.9 µM (inactive); in the experiment with CAKI-1 it was 25.1 µM (inactive); with TK-10 it was 17 µM (inactive); in the experiment on OVCAR-3, 17.4 µM (inactive); in the experiment on T47D, 12.5 µM (inactive). The GI50 in the experiment with PC-3 is 16.3 µM (inactive); with SR, 2.53 µM (inactive); with SK-MEL-5, 4.79 µM (inactive); in the experiment on BT-549 it was 12.4 µM (inactive).
Take `Cc1ccc(S(=O)(=O)NC2C(=O)c3ccccc3C(=O)C2n2cnc3ccccc32)cc1` (centres undefined): the GI50 in the experiment on U-251 is 26.1 µM (inactive); in the experiment with NCI/ADR-RES, 22.1 µM (inactive); in the experiment with HCT-116 it was 27.4 µM (inactive); in the experiment on Malme-3M, 0.214 µM (active); with SK-OV-3 it was 66.5 µM (inactive); in the experiment on RPMI-8226, 32.5 µM (inactive). Also, the GI50 in the experiment on HCC 2998 was 0.906 µM (active); with IGROV-1, 16.8 µM (inactive); with CAKI-1, 60 µM (inactive); in the experiment with TK-10, 17.7 µM (inactive); with OVCAR-3, 4.3 µM (inactive); with T47D it was 25.2 µM (inactive). Also, the GI50 with PC-3 is 21.2 µM (inactive); in the experiment on SR, 34.4 µM (inactive); in the experiment with SK-MEL-5 it was 13.1 µM (inactive); in the experiment on OVCAR-5, > 100 µM (inactive); with BT-549, 28.8 µM (inactive); with HT-29, 28.1 µM (inactive).
For `Nc1nc2c(c(=O)[nH]1)C(c1ccccc1)CC(=O)N2` (centres undefined), the GI50 in the experiment with U-251, in the experiment with NCI/ADR-RES, in the experiment on HCT-116, in the experiment with Malme-3M, in the experiment on SK-OV-3 and in the experiment with RPMI-8226 was > 100 µM (inactive) throughout. Besides, the GI50 in the experiment with HCC 2998, in the experiment with UO-31, in the experiment on IGROV-1, with TK-10, in the experiment on OVCAR-3 and in the experiment with T47D was > 100 µM (inactive) in each case. Further, the GI50 in the experiment with PC-3, in the experiment on SR, in the experiment on SK-MEL-5, in the experiment with OVCAR-5, in the experiment on BT-549 and with HT-29 was > 100 µM (inactive) throughout.
`O=C1C=C/C(=N/c2ccccc2)c2ccccc21`: the GI50 in the experiment with U-251 was 7.82 µM (inactive); in the experiment on NCI/ADR-RES, 15.1 µM (inactive); in the experiment on HCT-116, 12.1 µM (inactive); with SK-OV-3 it was 20.4 µM (inactive); in the experiment with RPMI-8226, 12.8 µM (inactive); with HCC 2998, 10.2 µM (inactive). Moreover, the GI50 is 10.3 µM (inactive) in the experiment on UO-31; 5.25 µM (inactive) in the experiment on IGROV-1; 14.8 µM (inactive) in the experiment with CAKI-1; 16.9 µM (inactive) with TK-10; 1.89 µM (inactive) with OVCAR-3; 16.2 µM (inactive) in the experiment on T47D. Moreover, the GI50 is 10.5 µM (inactive) in the experiment on PC-3; 11.4 µM (inactive) in the experiment with SR; 1.31 µM (inactive) in the experiment on SK-MEL-5; 17.9 µM (inactive) in the experiment with OVCAR-5; 14.7 µM (inactive) in the experiment with BT-549; 16.9 µM (inactive) with HT-29.
